Reference: ChEMBL document CHEMBL3507680, “University of Dundee, Gates Library screen for HepG2 cell viability”

Assay: Human HepG2 cell viability assay in 384 well format
Type: toxicity, cell-based
Design: dose 125 nL, time 70.5 hour; concentration not given beside the values
Conditions: HepG2 cells, read-out: Inhibition

| SMILES | cytotoxicity at 70.5 h [%] |
| --- | --- |
| CSc1cccc(CN2CCC(CCC(=O)NC3CC3)CC2)c1 | -7.44 |
| Cc1nc(CN(C)C(=O)c2cc(C)sc2NC(=O)C(C)(C)C)no1 | -11.2 |
| CC(C)SCC(=O)N1CCCn2nc(C(=O)Nc3ccccc3)cc2C1 | 6.99 |
| COCCN(Cc1cnn(C)c1)C(=O)C1COc2c(cccc2OC)C1 (configuration not stated) | 0.35 |
| Cc1cc(C)c2c(NCCC3(O)CCCC3)ncnc2n1 | -6.61 |
| CC1CCCN1Cc1cccc(C(=O)Nc2ccc3c(c2)CCC3=O)c1 (configuration not stated) | 5.96 |
| Cc1ccnn1CC(=O)N1CCCN(C2Cc3ccccc3C2)CC1 | -14.5 |
| Cc1nn2cc(CCNC(=O)c3cc(C(C)C)nn3C)nc2s1 | 6.04 |
| COCCn1ccnc1C1CCCN(c2cnccn2)C1 (configuration not stated) | 15.5 |
| CC(C)NS(=O)(=O)c1cc(C(=O)O)cc(-c2ccccc2CO)c1 | -3.6 |
| O=C(NCCCO)C1(N2CCCCC2)Cc2ccccc2C1 | -10.2 |
| CC(=O)c1ccc(C(=O)N(C)Cc2nc(-c3ccccn3)no2)s1 | 8.57 |
| Cc1ccc(Oc2ncccc2CNC(=O)C2COC(=O)N2)c(F)c1F (configuration not stated) | -11.2 |
| CCc1[nH]c2c(CNC(=O)C3CCN(C)C3)cc(C)cc2c1C (configuration not stated) | -8.68 |
| C=C(C)COc1ccc(C(=O)N(C)C(C)c2ccon2)cc1 (configuration not stated) | -9.63 |
| CN(Cc1cc2n(n1)CCCNC2)Cc1n[nH]c2c1CCC2 | -13.3 |
| O=C(NCc1csc(Cc2ccccc2)n1)C1NCCc2[nH]cnc21 (configuration not stated) | -2.44 |
| CN(Cc1cc2n(n1)CCCN(C(=O)N1CCCC1)C2)Cc1nccs1 | 24.4 |
| O=C(Cc1ccncc1)N(CCO)CCSc1ccc(Cl)cc1 | -12.1 |
| CCOc1ccccc1CCN1Cc2ncccc2C1=O | 3.15 |
| O=C(C1CC1)N1CCN(C(=O)CSc2ccccn2)[C@H]2CS(=O)(=O)C[C@H]21 | 24 |
| Cc1cccc(CN2CCC(NS(C)(=O)=O)CC2)n1 | -8.65 |
| CCOCCC(=O)N1CCCCC1CCn1cccn1 (configuration not stated) | -6.8 |

| SMILES | cytotoxicity at 70.5 h [%] |
| --- | --- |
| CC(c1nccs1)N(C)Cc1ccc(CCC(C)(C)O)cc1 (configuration not stated) | 0.285 |
| CN1CCN(S(=O)(=O)N2CCCCC2CCc2ccc(O)cc2)CC1 (configuration not stated) | -4.09 |
| CCC(=O)c1ccc(OCC(=O)NC(C)Cc2cc(C)n[nH]2)cc1 (configuration not stated) | -8.59 |
| CC(C)Oc1ccccc1-c1cc(CN)ccc1F | 5.05 |
| Cc1ccc(NC(=O)CNC(C)CN2CCCCC2)c(F)c1 (configuration not stated) | 6.42 |
| O=C(O)CCc1cc2n(n1)CCN(Cc1ccc3[nH]ccc3c1)C2 | -2.66 |
| CCn1nc(C)c(CN(CCOC)C(=O)c2ccc(=O)[nH]n2)c1C | -4.87 |
| c1ccc2c3c([nH]c2c1)CN(Cc1cc2n(n1)CCNC2)CC3 | 21.1 |
| CN1CCN(C)C2(CCN(Cc3ccc(C4CCCO4)s3)CC2)C1 (configuration not stated) | -3.28 |
| CCn1cc(Cn2cc(-c3cccc(C(C)N(C)C)c3)nn2)cn1 (configuration not stated) | -6.09 |
| COCCNc1cc(-c2ccccc2C(N)=O)c2cc[nH]c2n1 | -10.4 |
| Cc1ccccc1N1CCN(C2CCCN(C(=O)CCC(C)C)C2)CC1 (configuration not stated) | -0.359 |
| COCCN(C)C[C@@H]1CN(C(=O)c2ccc(OC)c(F)c2)C[C@@H]1CO | -7.53 |
| CCN(CCSc1ccccc1)C(=O)c1cn([C@H]2CC[C@@H](N)CC2)nn1 | -11.7 |
| NCC1CCCCN1Cc1cc(O)c2cccc(F)c2n1 (configuration not stated) | 21.6 |
| CN(C)Cc1nc(C(=O)N2CCCC(COc3ccc(F)cc3)C2)cs1 (configuration not stated) | -7.27 |
| CCN1CCC(CC(=O)NC[C@H]2CCc3ccccc3O2)CC1 | -8.77 |
| CC1CCc2n[nH]c(C(=O)N3CCc4c(nc(N(C)C)[nH]c4=O)C3)c2C1 (configuration not stated) | -13.8 |
| Cc1nn(CC(=O)N(C)Cc2nncn2C(C)C)c(=O)c2ccccc12 | -9.91 |
| N[C@H]1CC[C@@H](n2cc(C(=O)N[C@H]3CCCc4ccccc43)nn2)CC1 | -10.4 |
| COc1ccc(CCNCc2ccco2)cc1OC | -6.05 |
| Cc1cccc(CN(C(=O)CS(C)(=O)=O)C(C)C)c1 | -2.96 |
| Cc1cc(C(=O)NCc2cccnc2N2CCCC(O)C2)c(C)o1 (configuration not stated) | -8.63 |

| SMILES | cytotoxicity at 70.5 h [%] |
| --- | --- |
| CN(CCCc1cnn(C)c1)C(=O)Nc1cccc2[nH]ncc12 | -15.7 |
| CN(C)S(=O)(=O)N1CC[C@]2(O)CCN(Cc3cccc(F)c3)C[C@@H]2C1 | -6.74 |
| Cc1c[nH]c(CN(C)C(=O)C(C)(C)NC(=O)c2cccs2)n1 | -19.9 |
| O=C(O)C1(Cc2ccc(Cl)cc2)CCN(c2ncccc2F)CC1 | -4.45 |
| CCCn1c(C)c(CC(=O)NCCNC(C)=O)c2c1CC(C)(C)CC2=O | 1.34 |
| Cc1c(C(=O)N2CCC(O)(CN(C)C)C2)c2cc(O)ccc2n1C (configuration not stated) | -9.59 |
| CSCCc1nc(C(C)C)nn1-c1ccncc1C | -12.8 |
| Cc1cc(NCCc2nnc(N)s2)nc(-c2cccnc2)n1 | -6 |
| CCCN1CCC(Cc2noc(-c3cccnc3OC)n2)CC1 | 2.25 |
| O=C(c1cnc(O)cn1)N1C[C@@H]2CC[C@H](C1)N(Cc1ccccc1)C2 | -0.665 |
| Cc1cc(CNC(=O)CCCN2CCCCC2)n(C)n1 | 12.2 |
| Cc1cc(C)cc(N2CCN(C(=O)C3CN(C)C(=O)N3)CC2=O)c1 (configuration not stated) | -9.45 |
| CC(NC(=O)c1cccc(CCC(C)(C)O)c1)c1nnc(N)s1 (configuration not stated) | 30.7 |
| Cn1c(C2CCCN2C(=O)c2cn(CCN)nn2)nc2ccccc21 (configuration not stated) | -15.7 |
| O=C(CCN1CCCC(CO)(CC2CC2)C1)NCc1cccc(Cl)c1 (configuration not stated) | -7.94 |
| Cc1ccc(C2(O)CCN(Cc3nc(C)n4ccccc34)CC2)nc1 | -9.79 |
| CCn1c(Cn2cncn2)nnc1C1CCN(Cc2ccccn2)CC1 | 6.14 |
| CCCc1n[nH]c(=O)n1[C@@H](CC)c1ccccc1 | -10.8 |
| Oc1ccc(-c2c(-c3ccccc3)ncn2C[C@H]2CCCN2)cc1 | -2.17 |
| CCCn1cc(C(=O)NC(C(=O)O)c2ccccc2C(F)(F)F)c(C)n1 (configuration not stated) | -8.7 |
| Cc1nsc(NC(=O)N2CCN(Cc3ccccc3F)C(=O)C2)n1 | -8.72 |
| Cc1cc(C)nc(NC(C)Cc2cnccn2)n1 (configuration not stated) | -14 |
| CCCn1ccnc1CN1CCCC1c1ccccn1 (configuration not stated) | -4.45 |

| SMILES | cytotoxicity at 70.5 h [%] |
| --- | --- |
| CN(C)[C@H]1CCN(c2nc(C(C)(C)C)nc3c2cnn3C)C1 | 27.9 |
| Cc1[nH]c(=O)[nH]c(=O)c1CN1CCCC(CCc2ccc(F)cc2F)C1 (configuration not stated) | -9.69 |
| COc1ccccc1OC1CN(C(=O)c2c(C)nc3ccc(C)cn23)C1 | -1.56 |
| CC(C)(C)c1cc(CN2CCOC(CCc3ccccc3)C2)n[nH]1 (configuration not stated) | -9.92 |
| COc1cccn(Cc2nnc(-c3cccnc3)o2)c1=O | -1.16 |
| CC(C)N1CCCC(C(=O)NC(C)(C)c2nnc(N)s2)C1 (configuration not stated) | -12.2 |
| CCc1c(C)nn(CCNC(=O)c2cc(C3CC3)n[nH]2)c1C | -2.41 |
| CO[C@H]1C[C@@H](O)C12CCN(C(=O)CCSCc1ccc(F)cc1)CC2 | -18.7 |
| CC(=O)NCCNC(=O)c1cc(COc2ccccc2)[nH]n1 | 1.84 |
| CN(CCc1ccccn1)C(=O)c1cn(CCN2CCNCC2)nn1 | -10.7 |
| COC(=O)NCC(=O)N(C)Cc1csc(-c2cccs2)n1 | 3.35 |
| Cc1ccsc1CN(CCN(C)C)C(=O)c1cc2ccccc2[nH]1 | 4.92 |
| c1ccc2c(c1)nnn2CCCNC1CCOC2(CCOCC2)C1 (configuration not stated) | -5 |
| CCCc1cc(C(=O)N(Cc2cccnc2)C2CCCCC2)[nH]n1 | -7.56 |
| CCC(CO)(CO)NC(=O)C1CCC(=O)N(CCc2ccccc2)C1 (configuration not stated) | -10.4 |
| CCC(O)c1nc2c([nH]1)CC(C)(C)CNC2=O (configuration not stated) | 13 |
| CCN(CC)Cc1cc(C(=O)N2CCCC(O)(CO)C2)c(C)o1 (configuration not stated) | -7.27 |
| O=S1(=O)CCC(n2cc(C3=CCN(CCn4cccc4)CC3)cn2)C1 (configuration not stated) | 26.8 |
| Cc1ccc(C)c2c(O)cc(CN3CCNC(=O)C3C)nc12 (configuration not stated) | -8.28 |
| CN(CC1CCCCO1)c1nc(-c2cccnc2)nc2c1CCNC2 (configuration not stated) | -17.5 |
| CC(CN1CCOCC1)NC1CCN(Cc2cccc(O)c2)CC1 (configuration not stated) | -8.8 |
| CCCN1CCC(Cc2nn3c(C(C)C)nnc3s2)CC1 | 10.4 |
| CC(C)c1nnc(NCc2cc3n(n2)CCN(C2CCCCC2)C3)s1 | -0.516 |

| SMILES | cytotoxicity at 70.5 h [%] |
| --- | --- |
| Cc1ccsc1CN1CC2(CCN(C(=O)C3CC3)CC2)CC1C(=O)O (configuration not stated) | 10.8 |
| Cc1nn(C)c(Oc2ccc(Cl)cc2)c1CN1CCC(CN)C1 (configuration not stated) | -8.55 |
| CCCN(Cc1nccn1C)C(=O)c1cnn[nH]1 | 7.26 |
| CCCc1nnc(N[C@H](C)c2ccc(OC)cc2)o1 | -10.6 |
| O=C(C1CCC1)N1CCC(C2CCN(Cc3ccc(Cl)cc3)C2)CC1 (configuration not stated) | -3.08 |
| Cc1nc(C)n(CCNS(=O)(=O)NCc2ccccc2)n1 | -15.5 |
| COc1cc(C)ccc1OCc1nc(C(=O)N2CCCO2)co1 | 10.4 |
| CCc1cnc(NCC(CC)N2CCOCC2)nc1 (configuration not stated) | -6.68 |
| CCC[C@H]1CN(CCS(C)(=O)=O)C[C@@H]1NC(=O)c1ccccc1F | -2.49 |
| COc1cc(C2CC(=O)Nc3c2nc2n3CCCC2)ccc1O (configuration not stated) | -7.4 |
| CCC(CO)N(Cc1cccnc1)Cc1ccc(-c2ccn[nH]2)s1 (configuration not stated) | -7.15 |
| Cn1ccn2ncc(C(=O)NCc3cccnc3N3CCCC(O)C3)c12 (configuration not stated) | -18.3 |
| CN(Cc1ccon1)CC1CCOc2ccccc2C1 (configuration not stated) | -8.84 |
| CS(=O)(=O)N1CCC(Oc2ccc(C(=O)NC3CCCC3)cc2Cl)CC1 | -7.15 |
| Cn1ccnc1CN1CCN(CC2CC2)[C@@H]2CS(=O)(=O)C[C@@H]21 | -7.65 |
| CC(c1cccs1)N(C)C(=O)c1cc(CN(C)Cc2ccccc2)on1 (configuration not stated) | -4.76 |
| O=C(Cc1c[nH]c2ccccc12)NCC1CCN(Cc2c[nH]cn2)C1 (configuration not stated) | -6.01 |
| Cc1cc(CN2CC3(CCN(C(=O)C4CC4)CC3)CC2C(=O)O)oc1C (configuration not stated) | -7.26 |
| O=C(NC1CCCNC1)c1cc(COc2cccc(C(F)(F)F)c2)[nH]n1 (configuration not stated) | -0.657 |
| Cc1ccccc1-n1cc(-c2ccnc(N[C@@H](CO)C(C)C)n2)cn1 | -7.32 |
